Experimental data from patent US20190330142A1, “INHIBITORS OF MTOR-DEPTOR INTERACTIONS AND METHODS OF USE THEREOF” (The Regents of the University of California, priority 2016, published 2019).
Entries after “also recorded” stand apart in the source; their conditions may differ. Where two headings read alike, the source gives them in different places.

Experiments:
[1] = tested on: p70 phosphorylation (mTORC1 activity) in 8226 cells; assay: p70 phosphorylation Western blot (TORC1 activity) in 8226 cells; format: cell-based; conditions: for p70 phosphorylation vs the parent B / induction of p70 phosphorylation: 6 hrs; for p70 phosphorylation vs the parent B: compound B arbitrarily 1
Protocol: In mTORC1, mTOR phosphorylates the p70S6 kinase.
The 8226 and MM1.S myeloma cell lines were purchased from ATCC. The cell lines were characterized by FISH analysis and shown to contain MAF/Ig translocations. Western blot confirmed a significant over-expression of DEPTOR protein. Both lines were tested for mycoplasma within the last 6 months and were negative. Western blot assay—Protein was extracted and separated by 12.5% SDS-PAGE as previously described (see new ref below). Proteins were transferred to polyvinylidene difluoride membranes and their expression was detected utilizing specific antibodies purchased from Cell Signaling (Beverly, Mass.).

8226 MM cell line = assay: MTT cytotoxicity assay, 8226 MM cells; conditions: for IC50: 48 h; for anti-MM cytotoxicity in MTT assay compared to parent B: 48 hr MTT
Protocol: In mTORC1, mTOR phosphorylates the p70S6 kinase. Thus, a Western blot was used to test for induction of p70 phosphorylation in this secondary screen. Compounds were tested at 0.5, 1, and 2 uM with 6 hrs in vitro exposure. […] A summary of the p70 phosphorylation data from 4 separate experiments where derivatives were used at 0.5 uM, is shown in FIG. 3B. These first 8 derivatives were also screened for cytotoxicity against the same 8226 MM cell line in 48 hr MTT assays.
P70 phosphorylation was measured in 8226 cells treated for 6 hrs. […] The structures and biological activity of all derivatives are shown in Tables 1-4, categorized by structural modification.
The MTT assay was performed by seeding 1-2×10^4 target cells in 0.1 ml of complete media into wells of a 96 well microtiter plate. After incubation with compounds, the reduction of MTT to formazan by live cells was determined with a microplate ELISA reader equipped with a 570 nm filter.
The induction of p70 phosphorylation by derivative compounds was determined by densitometry, comparing immunoblot signals of phosphorylated p70 vs total p70. This ratio was then compared to that resulting from parental compound B, with the latter ratio arbitrarily placed at ‘1’. The IC50 for MTT cytotoxicity was determined using a range of concentrations of derivatives. Percent apoptosis was enumerated by flow cytometry in drug-treated cultures by subtracting control apoptosis determined from DMSO-treated cultures.

MM1.S MM cell line = assay: MTT cytotoxicity assay, MM1.S cells; format: cell-based; conditions: Homo sapiens, 48 hr
Protocol: The MTT assay was performed by seeding 1-2×10^4 target cells in 0.1 ml of complete media into wells of a 96 well microtiter plate. After incubation with compounds, the reduction of MTT to formazan by live cells was determined with a microplate ELISA reader equipped with a 570 nm filter. Quadruplicate wells were run for each group and the SD of each group was always <5% of the mean.

[2] = 8226 cells, 0.5 uM, compared to compound B
[3] = read-out: MTT (IC50, uM) 8226, 48 hr

Row | SMILES | p70 phosphorylation vs the parent B ([1]; 8226 cells, 0.5 uM) | IC50 (8226 MM cell line; read-out: MTT (IC50, uM) 8226) [µM] | IC50 (MM1.S MM cell line) [µM] | anti-MM cytotoxicity in MTT assay compared to parent B (8226 MM cell line) | induction of p70 phosphorylation [1, 2] | IC50 (8226 MM cell line; [3]) [µM] | toxicity to 8226 cells in p70 experiment ([1]; 0.5 uM) | enhancement of p70 phosphorylation ([1]; 8226 cells, 0.05-0.2 uM) | induction of p70 phosphorylation ([1]; 8226 cells, 1 or 2 uM)
1 | ClC1=C(Cl)C(Cl)=C(Cl)C1=NNC1CCCCC1 [3b, 1-Cyclohexyl-2-(perchlorocyclopenta-2,4-dien-1-ylidene)hydrazine] | no increase | > 3 | > 3 | – | – | – | – | – | –
2 | ClC1=C(Cl)C(Cl)=C(Cl)C1=NNc1ccccc1 [3d, 1-(Perchlorocyclopenta-2,4-dien-1-ylidene)-2-phenylhydrazine] | – | 0.6 | 2 | lower IC50s; also recorded: enhanced cytotoxic effects | – | – | – | – | –
3 | Fc1cccc(NN=C2C(Cl)=C(Cl)C(Cl)=C2Cl)c1 [3e, 1-(3-Fluorophenyl)-2-(perchlorocyclopenta-2,4-dien-1-ylidene)hydrazine] | – | 0.5 | 1.5 | lower IC50s; also recorded: enhanced cytotoxic effects | – | – | – | – | –
4 | ClC1=C(Cl)C(Cl)=C(Cl)C1=NNc1cc(Cl)cc(Cl)c1 [3f, 1-(3,5-dichlorophenyl)-2-(perchlorocyclopenta-2,4-dien-1-ylidene)hydrazine] | – | 0.8 | 2 | lower IC50s; also recorded: enhanced cytotoxic effects | – | – | – | – | –
5 | Cc1cccc(NN=C2C(Cl)=C(Cl)C(Cl)=C2Cl)c1 [3h, 1-(Perchlorocyclopenta-2,4-dien-1-ylidene)-2-(m-tolyl)hydrazine] | no increase | 2 | > 3 | – | – | – | – | – | –
6 | COc1cccc(NN=C2C(Cl)=C(Cl)C(Cl)=C2Cl)c1 [3i, 1-(3-Methoxyphenyl)-2-(perchlorocyclopenta-2,4-dien-1-ylidene)hydrazine] | no increase | > 3 | > 3 | – | – | – | – | – | –
7 | Fc1ccccc1NN=C1C(Cl)=C(Cl)C(Cl)=C1Cl [3j, 1-(2-Fluorophenyl)-2-(perchlorocyclopenta-2,4-dien-1-ylidene)hydrazine] | no increase | > 3 | > 3 | – | no activity | – | – | – | –
8 | ClC1=C(Cl)C(Cl)=C(Cl)C1=NN(c1ccccc1)c1ccccc1 [3l, 2-(Perchlorocyclopenta-2,4-dien-1-ylidene)-1,1-diphenylhydrazine] | no increase | > 3 | > 3 | – | – | – | – | – | –
9 | CC(=O)NN=C1C(Cl)=C(Cl)C(Cl)=C1Cl [4c, N′-(Perchlorocyclopenta-2,4-dien-1-ylidene)acetohydrazide] | no increase | 1 | – | – | no increase | – | – | – | –
10 | Cc1ccc(C(=O)N(N=C2C(Cl)=C(Cl)C(Cl)=C2Cl)C(=O)c2ccc(C)cc2)cc1 [4f, 4-Methyl-N-(4-methylbenzoyl)-N′-(perchlorocyclopenta-2,4-dien-1-ylidene)benzohydrazide] | – | 0.5 | 0.5 | enhanced cytotoxic effects | – | – | – | – | –
11 | C#CC(C)(C)OC(=O)NN=C1C(Cl)=C(Cl)C(Cl)=C1Cl [4i, 2-Methylbut-3-yn-2-yl 2-(perchlorocyclopenta-2,4-dien-1-ylidene)hydrazine-1-carboxylate] | – | > 5 | – | – | minimal increase | – | – | – | –
12 | NN=C1c2ccccc2-c2ccccc21 [6a, (9H-Fluoren-9-ylidene)hydrazine] | no increase | > 5 | – | did not show any improvement | did not show any improvement | – | – | – | –
13 | NN=c1c2ccccc2oc2ccccc12 [6b, (9H-Xanthen-9-ylidene)hydrazine] | no increase | > 5 | > 5 | did not show any improvement | did not show any improvement | – | – | – | –
14 | Fc1cccc(NN=C2c3ccccc3-c3ccccc32)c1 [6d, 1-(9H-Fluoren-9-ylidene)-2-(3-fluorophenyl)hydrazine] | no increase | > 5 | > 5 | did not show any activity | did not show any activity | – | – | – | –
15 | CC(C)(C)OC(=O)NN=C1c2ccccc2-c2ccccc21 [6e, tert-Butyl 2-(9H-fluoren-9-ylidene)hydrazine-1-carboxylate] | no increase | > 5 | > 5 | did not show any activity | did not show any activity | – | – | – | –
16 | ON=C1C(Cl)=C(Cl)C(Cl)=C1Cl [7a, 2,3,4,5-Tetrachlorocyclopenta-2,4-dien-1-one oxime] | no increase | – | – | poor activity | poor activity | > 5 | – | – | –
17 | COC1(OC)C(Cl)=C(Cl)C(Cl)=C1Cl [7b, 1,2,3,4-Tetrachloro-5,5-dimethoxycyclopenta-1,3-diene] | no increase | – | – | poor activity | poor activity | > 5 | – | – | –
18 | CN(C)N=C1C(Cl)=C(Cl)C(Cl)=C1Cl [compound 3a, 1,1-Dimethyl-2-(perchlorocyclopenta-2,4-dien-1-ylidene)hydrazine] | no increase | > 3 | > 3 | – | – | – | – | – | –
19 | CC(C)(C)NN=C1C(Cl)=C(Cl)C(Cl)=C1Cl [compound 3c, 1-(tert-Butyl)-2-(perchlorocyclopenta-2,4-dien-1-ylidene)hydrazine] | no increase | > 3 | > 3 | – | only modest activity | – | – | – | –
20 | O=C(NN=C1C(Cl)=C(Cl)C(Cl)=C1Cl)c1ccccc1 [compound 4a, N′-(Perchlorocyclopenta-2,4-dien-1-ylidene)benzohydrazide] | – | 0.6 | 0.8 | enhanced cytotoxic effects | – | – | considerable cell death | no enhancement of p70 phosphorylation | toxic and showed degradation of p70
21 | O=C(c1ccccc1)N(N=C1C(Cl)=C(Cl)C(Cl)=C1Cl)C(=O)c1ccccc1 [compound 4b, N-Benzoyl-N′-(perchlorocyclopenta-2,4-dien-1-ylidene)benzohydrazide] | – | 0.8 | 2 | lower IC50s; also recorded: enhanced cytotoxic effects | more effective than the parent compound B | – | – | – | –
22 | C#CCOC(=O)NN=C1C(Cl)=C(Cl)C(Cl)=C1Cl [compound 4h, Prop-2-yn-1-yl 2-(perchlorocyclopenta-2,4-dien-1-ylidene)hydrazine-1-carboxylate] | – | 0.8 | – | some cytotoxicity; also recorded: enhanced cytotoxic effects | minimal increase | – | – | – | –
